The values below are quoted from earlier work in patent US20070098654A1, “Nail whitening composition” (L'OREAL, priority 2005, published 2007).

For this data set the following is noted: at 20° C.

`NC(N)=O.OO` [Carbamide peroxide]: the Solubility in water result was “about 500 g/l”.
